# Measured values reported in patent publication US20170209544A1, “A PEPTIDE THERAPY TO COUNTERACT INSULIN RESISTANCE AND TYPE 2 DIABETES” (The Regents of the University of California, priority 2014, published 2017).
# Where no end group is shown, it is not given here.
# What was measured:
# [1] = system: adipocytes; experiment: Leptin production in adipocytes; format: cell-based
# Text: Mutant PST peptides were synthesized and screened. The peptides were synthesized as various deletion peptides of PST. Native PST (SEQ ID NO. 2) inhibited insulin-stimulated glucose uptake and leptin production in adipocytes. The inventors tested various deletion mutant PST peptides whether one or more of them would compete and prevent native PST action in adipocytes.
# [2] = system: KO-DIO mice; experiment: GTT, ITT and fasting insulin in PST-treated KO-DIO mice; format: in vivo
# Description: For glucose tolerance tests (GTT), glucose (1 mg/g) was injected intraperitoneally (IP-GTT) (at time zero) or gavaged orally (O-GTT) after a 12-hours fast. Tail-vein glucose levels were measured at −30, 0, 15, 30, 60, 90, and 120 minutes. For insulin tolerance tests (ITT), insulin (0.4 mU/g) was injected intraperitoneally and blood glucose levels were measured at the indicated time points. Chronic PST (5 μg/g/day) and PSTv1 (10 μg/day) treatments were carried out for 15 days. For acute treatment, either peptides or saline were injected 30 minutes before glucose or insulin injection. Synergy Software Kaleidagraph Version 4.0 calculated the area under the curve (AUC) for each line curve.
# Despite increased obesity, KO-DIO mice maintained insulin sensitivity as shown by GTT and ITT. […] WT-DIO and KO-DIO male mice with mixed genetic background were fasted for 12 hrs and subjected to IP-GTT (2-way ANOVA: Strain, p<0.0001; Time, p<0.0001; Interaction, p<0.045; n=8, as shown in FIGS. 12A and 12B), oral GTT (2-way ANOVA: Strain, p<0.0001; Time, p<0.0001; Interaction, p=0.09; n=8, as shown in FIGS. 12C and 12D), or IP-ITT (2-way ANOVA: Treatment (WT), p<0.0001; Time, p<0.0001; Interaction, p=0.56; Treatment (KO), p<0.0001; Time, p<0.0001; Interaction, 0.43; n=9, as shown in FIGS. 12E and 12F), and AUC for glucose excursions were determined (see FIGS. 12B, 12D and 12F). […] and the corresponding AUC were shown in FIGS. 12E and 12F, respectively. Body weight-matched WT-DIO and KO-DIO mice were fasted for 12 hrs and subjected to clamp studies to determine glucose infusion rate (GIR, shown in FIG. 12G), glucose disposal rate (GDR, shown in FIG. 12H), (I) insulin-stimulated GDR (IS-GDR, shown in FIG. 12I) and % suppression of hepatic glucose production (HGP) (n=8-9, shown in FIG. 12J). Fasting (12 hrs) basal levels of plasma insulin before (FIG. 12K) and after (FIG. 12L) chronic PST treatment (5 μg/g BW/day, IP for 15 days) (n=6) were shown. “&” Indicates comparison between WT-DIO+Sal and KO-DIO+Sal, “$” indicates comparison between WT-DIO+Sal and WT-DIO+PST, “#” indicates comparison between KO-DIO+Sal and KO-DIO+PST, and “*” indicates comparison between the indicated groups. “*, $ or #”: P<0.05, “**, &&, ## or $$”: p<0.01, “***, ### or &&&”: p<0.001.
# [3] = target: Bip/GRP78 (Mus musculus, UniProt P20029); experiment: Pull down assay using biotinylated PST; format: binding
# Text: PST interacts with ER chaperone, GRP78/BiP. […] Moreover, PST inhibits GRP78's ATPase enzymatic activity, and impairs its biosynthetic response to UPR activation. PST as an inhibitor of ATPase activity augments expression of gluconeogenic gene and G6Pase. GRP78 over-expression antagonizes this PST action.
# [4] = system: Chga-KO mice; experiment: Body weight of Chga-KO mice on NCD; format: in vivo; conditions: PST administration for 2 weeks
# [5] = system: KO-DIO mice; experiment: Adipose tissue inflammatory genes and plasma cytokines in PST-treated KO-DIO mice; format: in vivo; conditions: PST 5 μg/g BW for 15 days
# Description: RNA from tissues was extracted using a kit (RNeasy Plus, Qiagen, Valencia, Calif.). After DNase digestion, 200 ng of RNA was transcribed into cDNA in a 20-μl reaction using a High Capacity cDNA Archive kit and this cDNA was amplified. PCR (25-μl reactions) contained 5 μl of cDNA, 2×SYBR Green PCR Master Mix, and 400 nM of each primer. Differences in the threshold cycle number (ΔCt) between the target gene, the housekeeping gene Gapdh and the ribosomal protein gene 36B4 were used to calculate differences in expression. Primer sequences are provided below.
# Plasma cytokine concentrations were determined by a multiplex system from Quansys Biosciences (Logan, Utah).
# As shown in FIGS. 17A-17H, PST modulates adipose tissue inflammation. A group of KO-DIO mice were injected with saline or PST (5 μg/g BW) for 15 days. Weight-matched saline-treated WT-DIO, KO-DIO and PST-treated KO-DIO mice were fasted for 12 hr and sacrificed. Blood was collected to measure plasma cytokine levels. Tissues were subjected to RNA extraction, cDNA preparation and RT-qPCR analysis for cytokines (FIG. 17A, n=6), pro-inflammatory genes (FIG. 17B: Cd11c & IL-12p40, n=6; FIG. 17C: iNos, n=6), and anti-inflammatory genes (FIG. 17D: Arg-1 & IL-10, n=6; FIG. 17E: Mgl-1, Mgl-2 and Ym1, n=6). “*” Denotes comparison between the indicated groups. “*”: P<0.05, “**”: p<0.01, “***”: p<0.001.
# [6] = chronic PST 5 μg/g BW/day IP for 15 days, over WT-DIO levels
# Chain of Bip/GRP78 (P20029 20-655): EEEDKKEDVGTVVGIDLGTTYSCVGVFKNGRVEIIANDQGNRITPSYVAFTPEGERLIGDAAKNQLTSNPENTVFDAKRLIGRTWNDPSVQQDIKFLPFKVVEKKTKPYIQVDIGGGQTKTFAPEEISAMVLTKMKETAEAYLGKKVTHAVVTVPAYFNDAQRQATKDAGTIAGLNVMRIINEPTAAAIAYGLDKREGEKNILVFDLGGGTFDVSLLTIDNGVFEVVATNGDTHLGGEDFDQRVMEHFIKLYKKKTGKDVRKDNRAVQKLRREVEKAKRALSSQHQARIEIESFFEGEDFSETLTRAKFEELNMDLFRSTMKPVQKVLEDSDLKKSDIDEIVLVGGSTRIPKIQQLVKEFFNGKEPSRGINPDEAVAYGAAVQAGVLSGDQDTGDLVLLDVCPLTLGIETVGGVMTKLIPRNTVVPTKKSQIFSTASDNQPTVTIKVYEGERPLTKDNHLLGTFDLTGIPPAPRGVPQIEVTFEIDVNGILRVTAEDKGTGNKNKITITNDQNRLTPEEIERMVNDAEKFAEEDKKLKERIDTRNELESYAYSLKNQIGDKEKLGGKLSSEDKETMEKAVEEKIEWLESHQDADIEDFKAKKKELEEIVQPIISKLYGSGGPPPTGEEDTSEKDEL
substance,measurement,setting,value
"PEGKGEQEHSQQKEEEEEMAVVPQGLFRG-amide (PEGKGEQEHSQQKEEEEEMAVVPQGLFRG-NH2) [PST, Wild-type human pancreastatin, a chromogranin A derived peptide]",leptin production,[1],inhibited
same,blood glucose,"[2]; PST for 5 days, Chga-KO mice on high fat diet",led to hyperglycemia
same,insulin sensitivity phenotype on HFD,[2]; chronic PST 5 μg/g BW for 15 days,abolished
same,fasting glucose,[2]; [6],raised
same,fasting plasma insulin levels,[2]; [6],raised
same,binding to ER chaperone Bip/GRP78,[3],binds
same,body weight,[4],did not change
same,plasma levels of IL-12p70 and Mcp-1,[5],raised
same,"plasma levels of Ifnγ, IL-6, Mip-1α, Kc and Tnfα",[5],had no effect
same,expression of Arg-1 and IL-10,[5]; adipose tissue,significantly reduced
same,expression of Mgl-1 or Mgl-2,[5]; adipose tissue,had no effect
same,expression of Ym-1,[5]; adipose tissue,trend toward downregulating
same,"expression of pro-inflammatory genes IL-1β, Tnfα, IL-6, Mcp-1 and iNos",[5]; adipose tissue,increased expression
